A short description of assay [1]: Pichia membrane flotation assay, control membranes. Particulars: membranes from yeast not expressing ORAI1. It is filed as binding, Pichia pastoris. As for the experimental part: A membrane flotation assay was used to evaluate binding of these recombinant STIM 1 proteins to ORAI1. For these experiments ORAI1 (65-301) was expressed, an N-terminally truncated ORAI1 protein that forms functional Ca^2+ channels in mammalian cells (Li, Z., et al., J Biol Chem 282, 29448-29456 (2007)), in the yeast Pichia pastoris. Microsomal membranes were prepared from P pastoris expressing ORAI1 (65-301), layered at the bottom of a discontinuous sucrose gradient, and centrifuged. After centrifugation, the recombinant ORAI 1 was recovered near the top of the gradient in the fraction visually identified as containing membranes (FIG. 2A), as expected for an integral membrane protein.
Microsomal membranes, prepared from yeast Pichia pastoris expressing human ORAI1 (65-301) with an N-terminal FLAG tag and the substitutions E106Q and N223A, were resuspended in 10 mM HEPES pH 7.4, 150 mM NaCl, 1 mM DTT, 10% glycerol, briefly sonicated, brought to 25 mM EDTA by addition of EDTA from a concentrated stock, layered over a 0.5 M sucrose cushion, and centrifuged at 149,000×g for 1 h at 4° C. in a Beckman airfuge. […] FLAG-tagged ORAI1 was detected using anti-FLAG M2 monoclonal antibody (Sigma) and His-tagged STIM1^CT fragments were detected using anti-His-Tag monoclonal antibody (27E8 clone, Cell Signaling Technology).

A further assay addresses ORAI1 (E106Q) (Homo sapiens, UniProt Q96D31, E106Q). The assay is described as follows: Cameleon D3 cpV intravesicular Ca^2+ assay, vesicles with ORAI1 (E106Q). It is filed as biochemical. Also noted: the ORAI functional fragment is ORAI1 (65-301), ORAI1 (65-87), or full length ORAI1; made in house; host or cells: S. cerevisiae NY17 (sec6-4), isolated secretory vesicles. Particulars: vesicles containing ORAI1 (E106Q). The text has this:
Confirmation that Ca^2+ release from the vesicles was due to gating of the ORAI 1 channel was sought. […] It was concluded that the in vitro assay reflects STIM 1-dependent gating of ORAI1 and Ca^2+ flux through the ORAI1 channel pore.
The yeast expression vector pBEVY-GU60 allows for simultaneous expression of two transgenes by means of the bidirectional GAL1-10 promoter. The FRET-based calcium sensors D3 cpV and D4 cpV53 were fused at the N-terminus with the S. cerevisiae α-mating factor secretion signal (Bitter, G. A., et al., Proc Natl Acad Sci USA 81, 5330-5334 (1984)), which directs proteins into the secretory pathway, and introduced into pBEVY-GU in the following way. Vector pPIC9 (Invitrogen) served as template for PCR amplification of the α-mating factor secretion signal (5′ primer: […] (SEQ ID NO: 2); 3′ primer: […] (SEQ ID NO: 3)), introducing an EcoRI site at the 5′ end, and a sequence complementary to that encoding the N-terminus of the calcium sensor at the 3′ end. DNA encoding the N-terminal portion of the calcium sensor D3 cpV, comprising CFP, was amplified by PCR (5′ primer: […] (SEQ ID NO: 4); 3′ primer: […] (SEQ ID NO: 5)), introducing an SphI site followed by a stop codon and a NotI site at the 3′ end of the resulting DNA fragment. […]

From patent publication US20120264231A1, “ASSAY FOR ORAI CALCIUM CHANNEL REGULATORS” (IMMUNE DISEASE INSTITUTE, INC., priority 2009, published 2012) come the findings set out here.

ORAI1 (E106Q), sequence (Q96D31 2-301 E106Q): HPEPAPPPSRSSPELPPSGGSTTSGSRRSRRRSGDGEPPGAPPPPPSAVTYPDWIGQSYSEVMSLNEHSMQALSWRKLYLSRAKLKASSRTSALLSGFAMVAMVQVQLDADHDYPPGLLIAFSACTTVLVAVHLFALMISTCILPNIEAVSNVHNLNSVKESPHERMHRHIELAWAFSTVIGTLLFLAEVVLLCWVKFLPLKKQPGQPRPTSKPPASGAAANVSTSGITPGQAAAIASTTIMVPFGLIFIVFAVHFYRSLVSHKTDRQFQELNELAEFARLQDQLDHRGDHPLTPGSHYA

On to “STIM1^CT: cytoplasmic region of STIM1, mouse residues 233-685, His-tagged recombinant protein expressed in E coli”, for which the “position in gradient with control membranes” value in assay [1] is on record as “remained at the bottom of the gradient”. Further, the “Ca^2+ release from vesicles” value with ORAI1 (E106Q) was “did not elicit Ca^2+ release”.
